Data set [1] concerns the target T1, C-X-C chemokine receptor type 4 (Homo sapiens, UniProt P61073). Briefly: Antagonist activity at human CXCR4 in CCRF-CEM cells assessed as decrease in SDF-1alpha stimulated Ca2+ flux preincubated for 25 mins followed by SDF-1alpha addition measured for 90 secs by calcium dye-based fluorescence assay. Type of data set: functional, cell-based. On the technique in general: Calcium flux is commonly read through the fluorescence of an indicator in the cells.

Data set [2] is described as follows: Antagonist activity at mAChR in human CCRF-CEM cells assessed as decrease in acetylacholine-stimulated Ca2+ flux preincubated for 25 mins followed by acetylacholine addition measured for 90 secs by calcium dye-based fluorescence assay. Type of data set: cell-based.
Another data set deals with Cytochrome P450 2D6 (Homo sapiens, UniProt P10635). Briefly: Inhibition of recombinant human CYP2D6 expressed in microsomes of insect cells using AMMC as substrate preincubated for 30 mins followed by NADP addition after 45 mins by fluorescence analysis.
Data set [3] is described as follows: Metabolic stability in human liver microsomes assessed as parent compound remaining at 0.5 uM after 10 mins in presence of NADPH by LC-MS/MS analysis.
The nature of data set [4]: Metabolic stability in mouse liver microsomes assessed as parent compound remaining at 0.5 uM after 10 mins in presence of NADPH by LC-MS/MS analysis. (Microsomes from liver hold many membrane-bound enzymes, among them those of drug oxidation.)
Data set [5] concerns the target T1, C-X-C chemokine receptor type 4. Nature of the data set: Agonist activity at CXCR4 in human CCRF-CEM cells assessed as induction of Ca2+ flux measured for 90 secs by calcium dye-based fluorescence assay. The data set is classed as functional, cell-based.
Data set [6] can be described thus: Agonist activity at mAChR in human CCRF-CEM cells assessed as induction of Ca2+ flux measured for 90 secs by calcium dye-based fluorescence assay. Type of data set: cell-based.
A short description of data set [7]: Permeability of the compound at pH 7.4 at 100 uM after 4 hrs by PAMPA.
Data set [8] in a line: Permeability of the compound at pH 5.5 at 100 uM after 4 hrs by PAMPA. Background: The PAMPA barrier holds no transporters, so it reflects passive diffusion.

For orientation: pIC50 means the negative decadic logarithm of the IC50, by convention in mol/L. For orientation: share remaining means what is left of the initial amount, in per cent. The pEC50 is the negative decadic logarithm of the EC50, by convention in mol/L. The term Papp denotes a coefficient for how fast a substance crosses the barrier. Low readings indicate poor permeation, high ones ready permeation.

pEC50, pIC50: −log10 of the molar value.

T1 sequence (P61073 whole entry): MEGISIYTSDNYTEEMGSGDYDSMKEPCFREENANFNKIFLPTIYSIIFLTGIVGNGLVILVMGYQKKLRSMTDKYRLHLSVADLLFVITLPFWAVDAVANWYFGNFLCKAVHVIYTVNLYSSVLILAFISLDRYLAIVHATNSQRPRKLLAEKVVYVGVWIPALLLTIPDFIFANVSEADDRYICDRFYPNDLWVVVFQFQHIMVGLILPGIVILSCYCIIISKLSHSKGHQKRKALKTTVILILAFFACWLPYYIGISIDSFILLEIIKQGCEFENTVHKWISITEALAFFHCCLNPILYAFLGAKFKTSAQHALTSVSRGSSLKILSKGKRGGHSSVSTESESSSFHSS
Cytochrome P450 2D6, sequence (P10635 whole entry): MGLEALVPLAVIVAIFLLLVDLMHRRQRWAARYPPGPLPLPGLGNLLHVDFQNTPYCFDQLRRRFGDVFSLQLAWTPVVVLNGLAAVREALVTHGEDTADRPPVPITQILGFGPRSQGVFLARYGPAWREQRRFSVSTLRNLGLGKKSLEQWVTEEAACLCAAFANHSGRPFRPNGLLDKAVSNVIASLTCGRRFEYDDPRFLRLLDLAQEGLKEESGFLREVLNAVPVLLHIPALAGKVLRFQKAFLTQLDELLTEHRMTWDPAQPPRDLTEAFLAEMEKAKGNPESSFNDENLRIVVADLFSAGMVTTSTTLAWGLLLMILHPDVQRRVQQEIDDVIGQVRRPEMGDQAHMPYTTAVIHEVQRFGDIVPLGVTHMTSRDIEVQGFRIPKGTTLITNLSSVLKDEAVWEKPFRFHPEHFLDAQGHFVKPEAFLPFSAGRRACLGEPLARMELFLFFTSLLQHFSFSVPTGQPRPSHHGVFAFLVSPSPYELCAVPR

For `c1ccc2c(c1)CN[C@@H](CN(CCCCNC1CCOCC1)[C@H]1CCCc3cccnc31)C2`, the pIC50 in data set [1] was 7.53; in data set [2], under 4.48; on Cytochrome P450 2D6, 6.18. Further, the fraction remaining at 10 min, 0.5 µM in data set [3] came to 53%; in [4], 55.8%. Moreover, the pEC50 in [5] and in data set [6] was under 4.52 throughout.

For the compound `CC1(C)CCC(NCc2ccc(CN(C[C@H]3Cc4ccccc4CN3)[C@H]3CCCc4cccnc43)cc2)CC1`, the pIC50 in data set [2] was 5.06; at Cytochrome P450 2D6, 6.59. Besides, the share remaining at 10 min, 0.5 µM in [3] is 14.9%; in [4], 23.2%. Besides, the pEC50 in data set [5] and in data set [6] was under 4.52 throughout.

In the case of `FC1(F)CCC(CNCCCCN(C[C@H]2Cc3ccccc3CN2)[C@H]2CCCc3cccnc32)CC1`, the pIC50 in [1] was 6.77; in data set [2], under 4.78. In addition, the pEC50 in data set [5] and in data set [6] was under 4.52 throughout.

In the case of `c1ccc2c(c1)CN[C@@H](CN(Cc1ccc(CNCC3CCOCC3)cc1)[C@H]1CCCc3cccnc31)C2`, in data set [2], the pIC50 is under 4.78. Also, the pEC50 in data set [6] was under 4.52.

Turning to `c1cncc(CNCCCCN(C[C@H]2Cc3ccccc3CN2)[C@H]2CCCc3cccnc32)c1`, the values for the pIC50 (in [1]; in data set [2]; on Cytochrome P450 2D6) were 7.82, 4.70 and 6.66, respectively. The fraction remaining at 10 min, 0.5 µM in data set [3] worked out at 21.4%; in [4], 10.2%. For the same compound, the pEC50 in [5] and in data set [6] was under 4.52 throughout.

For `O=S1(=O)CCC(CNCCCCN(C[C@H]2Cc3ccccc3CN2)[C@H]2CCCc3cccnc32)CC1`, the results for the pIC50 (in data set [1]; in data set [2]; at Cytochrome P450 2D6) were 7.77, under 4.78 and 5.93, respectively. The fraction remaining at 10 min, 0.5 µM is 74% in data set [3] and 39.3% in data set [4]. Also, the negative logarithm of the EC50 (pEC50) in data set [5] and in data set [6] was under 4.52 each time.

Consider `O=S1(=O)CCC(NCCCCN(C[C@H]2Cc3ccccc3CN2)[C@H]2CCCc3cccnc32)CC1`, for which the pIC50 in [1] is 7.34; in [2], under 4.48; on Cytochrome P450 2D6, 6.07. Moreover, the fraction remaining at 10 min, 0.5 µM in data set [3] is 11.7%; in [4], 17.6%. Besides, the pEC50 in [5] and in data set [6] was under 4.52 each time.

As to `c1ccc2c(c1)CN[C@@H](CN(Cc1ccc(CNCc3ccncc3)cc1)[C@H]1CCCc3cccnc31)C2`, the negative logarithm of the IC50 (pIC50) was 4.91 in data set [2] and 7.08 at Cytochrome P450 2D6. Moreover, in data set [7], the Papp at 4 h, 100 µM amounted to 38.5 ×10⁻⁶ cm/s. Moreover, the fraction remaining at 10 min, 0.5 µM in data set [3] came to 0.882%; in data set [4], 4.39%. Further, the pEC50 in [5] and in data set [6] was under 4.52 throughout.

Regarding `c1ccc(CNCCCCN(C[C@H]2Cc3ccccc3CN2)[C@H]2CCCc3cccnc32)cc1`, the pIC50 in [1] was 7.70; in data set [2], 5.46; on Cytochrome P450 2D6, 6.85. Besides, the amount remaining at 10 min, 0.5 µM came out at 71.7% in [3] and 31.2% in data set [4]. In addition, the pEC50 in [5] and in data set [6] was under 4.52 in each case.

Consider `C(=C\CN(C[C@H]1Cc2ccccc2CN1)[C@H]1CCCc2cccnc21)/CNCc1ccncc1`, for which, in data set [2], the pIC50 was under 4.78. In addition, the pEC50 in [6] was under 4.52.

With `c1ccc2c(c1)CN[C@@H](CN(CCCCNCc1ccncc1)[C@H]1CCCc3cccnc31)C2`, the pIC50 in data set [1] was 7.64; in data set [2], under 4.48; at Cytochrome P450 2D6 it was 6.84. The same compound came in with a Papp at 4 h, 100 µM in data set [8] of 0.65 ×10⁻⁶ cm/s. Further, the values for the share remaining at 10 min, 0.5 µM in [3] and in data set [4] were 1.92% and 6.44%, respectively. In addition, the pEC50 in [5] and in [6] was under 4.52 in each case.

For the compound `c1ccc(CNCc2ccc(CN(C[C@H]3Cc4ccccc4CN3)[C@H]3CCCc4cccnc43)cc2)nc1`, the pIC50 in data set [2] is 5.16; at Cytochrome P450 2D6, 6.42. In data set [8], this compound displayed a Papp at 4 h, 100 µM of 1.6 ×10⁻⁶ cm/s. Further, the amount remaining at 10 min, 0.5 µM was determined as 1.77% in data set [3] and 11.6% in data set [4]. The pEC50 in [5] and in [6] was under 4.52 each time.

Consider `c1ccc2c(c1)CN[C@@H](CN(CCCCNC1CCCCC1)[C@H]1CCCc3cccnc31)C2`, for which the pIC50 in data set [1] was 7.12; in data set [2], under 4.48; at Cytochrome P450 2D6, 6.28. For the same compound, the Papp at 4 h, 100 µM in data set [8] amounted to 1.45 ×10⁻⁶ cm/s. Also, the results for the share remaining at 10 min, 0.5 µM in data set [3] and in data set [4] were 46.1% and 43.8%, respectively. Also, the pEC50 in [5] and in data set [6] was under 4.52 in each case.

As for `NCc1ccc(CN(C[C@H]2Cc3ccccc3CN2)[C@H]2CCCc3cccnc32)cc1`, the pIC50 in data set [2] is under 4.48. For the same compound, in data set [6], the pEC50 was under 4.52.

For `CC(C)(CCN(C[C@H]1Cc2ccccc2CN1)[C@H]1CCCc2cccnc21)CNCC1CCOCC1`, the pIC50 was 7.36 in data set [1], 4.89 in data set [2] and 5.76 on Cytochrome P450 2D6. This compound returned an apparent permeability coefficient (Papp) at 4 h, 100 µM in data set [8] of 6.2 ×10⁻⁶ cm/s. In addition, the amount remaining at 10 min, 0.5 µM in data set [3] is 46.1%; in [4] it was 60.3%. In addition, the pEC50 in data set [5] and in [6] was under 4.52 each time.

Consider `FC1(F)CCC(NCc2ccc(CN(C[C@H]3Cc4ccccc4CN3)[C@H]3CCCc4cccnc43)cc2)CC1`, for which the negative logarithm of the IC50 (pIC50) in data set [2] is under 4.78; on Cytochrome P450 2D6, 6.24. The same compound came in with a Papp at 4 h, 100 µM in [7] of 0.5 ×10⁻⁶ cm/s. In addition, the amount remaining at 10 min, 0.5 µM came to 10.8% in data set [3] and 30.2% in data set [4]. The pEC50 in data set [5] and in [6] was under 4.52 throughout.

With `c1ccc2c(c1)CN[C@@H](CN(CCCCNCC1CCNCC1)[C@H]1CCCc3cccnc31)C2`, the negative-log IC50 (pIC50) was 7.44 in data set [1], under 4.78 in data set [2] and 5.60 at Cytochrome P450 2D6. Also, the amount remaining at 10 min, 0.5 µM is 84.6% in [3] and 37.9% in data set [4]. Further, the negative-log EC50 (pEC50) in data set [5] and in [6] was under 4.52 in each case.

For the compound `c1ccc2c(c1)CN[C@@H](CN(CCCCNCC1CCOCC1)[C@H]1CCCc3cccnc31)C2`, the pIC50 in data set [1] was 7.28; in [2], under 4.48; on Cytochrome P450 2D6, 5.57. Moreover, the Papp at 4 h, 100 µM in data set [8] came to 0.6 ×10⁻⁶ cm/s. Besides, the fraction remaining at 10 min, 0.5 µM in data set [3] was found to be 57.6%; in data set [4] it was 48.5%. The pEC50 in data set [5] and in data set [6] was under 4.52 throughout.

For the compound `c1ccc(CNCCCCN(C[C@H]2Cc3ccccc3CN2)[C@H]2CCCc3cccnc32)nc1`, in [2], the pIC50 is under 4.52. Further, in [6], the negative logarithm of the EC50 (pEC50) is under 4.52.

As for `NCc1cccc(CN(C[C@H]2Cc3ccccc3CN2)[C@H]2CCCc3cccnc32)c1`, the pIC50 in [2] is 4.59; at Cytochrome P450 2D6, 7.49. For the same compound, the share remaining at 10 min, 0.5 µM came out at 97.3% in data set [3] and 89.2% in data set [4]. The pEC50 in data set [5] and in [6] was under 4.52 throughout.

For the compound `c1ccc(CN(CCCCN(C[C@H]2Cc3ccccc3CN2)[C@H]2CCCc3cccnc32)Cc2ccccc2)cc1`, the pIC50 in data set [1] was under 4.78; in data set [2] it was under 4.48; on Cytochrome P450 2D6, 6.31. Besides, in data set [8], the Papp at 4 h, 100 µM stood at 3.9 ×10⁻⁶ cm/s. In addition, the share remaining at 10 min, 0.5 µM in data set [3] came out at 4.84%; in [4] it was 0.298%. In addition, the pEC50 in data set [5] and in data set [6] was under 4.52 in each case.

As to `c1ccc2c(c1)CN[C@@H](CN(CCCCNCC1CCSCC1)[C@H]1CCCc3cccnc31)C2`, the pIC50 was 7.16 in [1], under 4.78 in data set [2] and 6.20 on Cytochrome P450 2D6. Besides, the share remaining at 10 min, 0.5 µM in [3] was 49.4%; in data set [4], 2.82%. In addition, the pEC50 in [5] and in data set [6] was under 4.52 in each case.

With `c1ccc2c(c1)CN[C@@H](CN(Cc1ccc(CNC3CCOCC3)cc1)[C@H]1CCCc3cccnc31)C2`, the results for the pIC50 (in [2]; on Cytochrome P450 2D6) were under 4.78 and 6.29, respectively. The same compound displayed a Papp at 4 h, 100 µM in [7] of 9.2 ×10⁻⁶ cm/s. The fraction remaining at 10 min, 0.5 µM in data set [3] was found to be 20.4%; in data set [4] it was 34.8%. Further, the pEC50 in data set [5] and in data set [6] was under 4.52 throughout.

On to `FC1(F)CCC(NCCCCN(C[C@H]2Cc3ccccc3CN2)[C@H]2CCCc3cccnc32)CC1`, for which the pIC50 was 8.43 in data set [1] and 4.55 in [2]. Further, the pEC50 in data set [5] and in data set [6] was under 4.52 each time.

For `C(=C\CN(C[C@H]1Cc2ccccc2CN1)[C@H]1CCCc2cccnc21)/CNCc1cccnc1`, the pIC50 is 4.45 in [2] and 6.34 at Cytochrome P450 2D6. Also, the Papp at 4 h, 100 µM in data set [7] came out at 24.4 ×10⁻⁶ cm/s. The amount remaining at 10 min, 0.5 µM came out at 1.84% in [3] and 0.953% in data set [4]. Moreover, the pEC50 in data set [5] and in [6] was under 4.52 in each case.

As to `c1ccc2c(c1)CN[C@@H](CN(CCCCNC1CCNCC1)[C@H]1CCCc3cccnc31)C2`, the pIC50 in [1] is 7.20; in [2] it was under 4.48; on Cytochrome P450 2D6, 5.58. The compound further registered a Papp at 4 h, 100 µM in data set [8] of 1.9 ×10⁻⁶ cm/s. Also, the fraction remaining at 10 min, 0.5 µM was 100% in data set [3] and 38% in data set [4]. Further, the pEC50 in [5] and in data set [6] was under 4.52 each time.

As to `c1cncc(CNCc2ccc(CN(C[C@H]3Cc4ccccc4CN3)[C@H]3CCCc4cccnc43)cc2)c1`, in data set [2], the pIC50 was 4.67. Further, the pEC50 in [6] is under 4.52.
